These results are taken from patent US20190367516A1 (Bayer Pharma Aktiengesellschaft, priority 2015, published 2019).

This test deals with T1, human M2 receptor (Homo sapiens, UniProt P08172).
T1 sequence (P08172 1-466): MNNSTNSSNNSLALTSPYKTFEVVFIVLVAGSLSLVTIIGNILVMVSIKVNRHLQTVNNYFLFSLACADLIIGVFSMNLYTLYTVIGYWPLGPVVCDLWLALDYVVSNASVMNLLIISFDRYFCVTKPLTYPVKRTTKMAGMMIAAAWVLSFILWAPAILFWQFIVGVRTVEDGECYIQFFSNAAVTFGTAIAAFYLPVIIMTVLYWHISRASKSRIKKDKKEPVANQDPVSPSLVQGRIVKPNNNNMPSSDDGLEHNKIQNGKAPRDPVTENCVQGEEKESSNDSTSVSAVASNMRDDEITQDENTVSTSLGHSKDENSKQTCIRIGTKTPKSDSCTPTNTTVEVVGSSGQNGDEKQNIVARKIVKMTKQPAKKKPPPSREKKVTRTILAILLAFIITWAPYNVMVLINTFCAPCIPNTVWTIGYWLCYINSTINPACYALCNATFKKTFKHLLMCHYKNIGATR
The following applies: Receptor activity EC50, M2-GIRK1/4 activation test, acetylcholine at EC20; allosteric potency; in some cases mean values from two or more determinations.
As usually defined, the EC50 is the concentration needed to bring the measured effect to its halfway point. A high value points to weaker potency. As for `O=C(NC(c1c(F)cccc1F)C(F)(F)F)c1cn(-c2ccc(F)cc2F)c2nc(N3CC[C@@H](O)C3=O)ccc2c1=O` (stereo partly drawn) [Example 300, 1-(2,4-Difluorophenyl)-N-[1-(2,6-difluorophenyl)-2,2,2-trifluoroethyl]-7-[(3R)-3-hydroxy-2-oxopyrrolidin-1-yl]-4-oxo-1,4-dihydro-1,8-naphthyridine-3-carboxamide], a half-maximal effect (EC50) was put at 54 nM.
The value for `CC[C@@H](NC(=O)c1cn(-c2c(F)cccc2Cl)c2nc(N3CC[C@@H](O)C3=O)ccc2c1=O)C(F)(F)F` [Example 308, 1-(2-Chloro-6-fluorophenyl)-7-[(3R)-3-hydroxy-2-oxopyrrolidin-1-yl]-4-oxo-N-[(2R)-1,1,1-trifluorobutan-2-yl]-1,4-dihydro-1,8-naphthyridine-3-carboxamide] was 30 nM.
With `CC[C@@H](NC(=O)c1cn(-c2c(F)cccc2Cl)c2nc(N3CC[C@H](O)C3=O)ccc2c1=O)C(F)(F)F` [Example 309, 1-(2-Chloro-6-fluorophenyl)-7-[(3S)-3-hydroxy-2-oxopyrrolidin-1-yl]-4-oxo-N-[(2R)-1,1,1-trifluorobutan-2-yl]-1,4-dihydro-1,8-naphthyridine-3-carboxamide] the figure was 40 nM; with `CC[C@@H](NC(=O)c1cn(-c2ccc(F)cc2F)c2nc(N3CCN(C)C3=O)ccc2c1=O)C(F)(F)F` [Example 321, 1-(2,4-Difluorophenyl)-7-(3-methyl-2-oxoimidazolidin-1-yl)-4-oxo-N-[(2R)-1,1,1-trifluorobutan-2-yl]-1,4-dihydro-1,8-naphthyridine-3-carboxamide], 43 nM; with `C[C@@H](COC(F)(F)F)NC(=O)c1cn(-c2c(F)cc(F)cc2Cl)c2nc(N3C[C@@H](O)[C@H](O)C3)ccc2c1=O` [Example 322, 1-(2-Chloro-4,6-difluorophenyl)-7-[(3R,4R)-3,4-dihydroxypyrrolidin-1-yl]-4-oxo-N-[(2S)-1-(trifluoromethoxy)propan-2-yl]-1,4-dihydro-1,8-naphthyridine-3-carboxamide], 40 nM.
The value for `CC[C@@H](NC(=O)c1cn(-c2c(F)cc(F)cc2F)c2nc(N3CCC(C)(O)C3)ccc2c1=O)C(F)(F)F` (stereo partly drawn) [Example 324, 7-[3-Hydroxy-3-methylpyrrolidin-1-yl]-4-oxo-N-[(2R)-1,1,1-trifluorobutan-2-yl]-1-(2,4,6-trifluorophenyl)-1,4-dihydro-1,8-naphthyridine-3-carboxamide] was 34 nM.
In the case of `CC[C@H](NC(=O)c1cn(-c2c(F)cccc2F)c2nc(N3CCC(C)(O)C3)ccc2c1=O)C(F)(F)F` (stereo partly drawn) [Example 327, 1-(2,6-Difluorophenyl)-7-[3-hydroxy-3-methylpyrrolidin-1-yl]-4-oxo-N-[(2S)-1,1,1-trifluorobutan-2-yl]-1,4-dihydro-1,8-naphthyridine-3-carboxamide], the EC50 is 69 nM.
With `CC[C@@H](NC(=O)c1cn(-c2ccc(F)cc2F)c2nc(N3CC(C)(OC)C3)ccc2c1=O)C(F)(F)F` [Example 328, 1-(2,4-Difluorophenyl)-7-(3-methoxy-3-methyazetidin-1-yl)-4-oxo-N-[(2R)-1,1,1-trifluorobutan-2-yl]-1,4-dihydro-1,8-naphthyridine-3-carboxamide] the figure was 79 nM; with `CC[C@H](NC(=O)c1cn(-c2c(F)cc(F)cc2Cl)c2nc(N3C[C@@](C)(O)C[C@H]3C)ccc2c1=O)C(F)(F)F` [Example 334, 1-(2-Chloro-4,6-difluorophenyl)-7-[(2R,4S)-4-hydroxy-2,4-dimethylpyrrolidin-1-yl]-4-oxo-N-[(2S)-1,1,1-trifluorobutan-2-yl]-1,4-dihydro-1,8-naphthyridine-3-carboxamide], 7 nM.
The value for `CC[C@@H](NC(=O)c1cn(-c2ccc(F)cc2F)c2nc(N3CCCC3=O)ccc2c1=O)C(F)(F)F` [Example 337, 1-(2,4-Difluorophenyl)-4-oxo-7-(2-oxopyrrolidin-1-yl)-N-[(2R)-1,1,1-trifluorobutan-2-yl]-1,4-dihydro-1,8-naphthyridine-3-carboxamide] was 36 nM; that for `C[C@H](NC(=O)c1cn(-c2c(F)cc(F)cc2F)c2nc(N3CCNC3=O)ccc2c1=O)C(F)(F)F` [Example 341, 4-Oxo-7-(2-oxoimidazolidin-1-yl)-1-(2,4,6-trifluorophenyl)-N-[(2S)-1,1,1-trifluoropropan-2-yl]-1,4-dihydro-1,8-naphthyridine-3-carboxamide] was 56 nM.
The value for `CC[C@H](NC(=O)c1cn(-c2c(F)cc(F)cc2F)c2nc(N3CCNC3=O)ccc2c1=O)C(F)(F)F` [Example 343, 4-Oxo-7-(2-oxoimidazolidin-1-yl)-N-[(2S)-1,1,1-trifluorobutan-2-yl]-1-(2,4,6-trifluorophenyl)-1,4-dihydro-1,8-naphthyridine-3-carboxamide] was 25 nM.
In turn, `CC[C@@H](NC(=O)c1cn(-c2ccc(F)cc2F)c2nc(N3CCCN(CC)C3=O)ccc2c1=O)C(F)(F)F` [Example 344, 1-(2,4-Difluorophenyl)-7-(3-ethyl-2-oxotetrahydropyrimidin-1(2H)-yl)-4-oxo-N-[(2R)-1,1-trifluorobutan-2-yl]-1,4-dihydro-1,8-naphthyridine-3-carboxamide] gave a concentration for a half-maximal effect (EC50) of 54 nM.
With `O=C(N[C@@H](C1CC1)C(F)(F)F)c1cn(-c2c(F)cccc2F)c2nc(N3C[C@@H](O)[C@H](O)C3)ccc2c1=O` [Example 345, N-[(1 S)-1-Cyclopropyl-2,2,2-trifluoroethyl]-1-(2,6-difluorophenyl)-7-[(3R,4R)-3,4-dihydroxypyrrolidin-1-yl]-4-oxo-1,4-dihydro-1,8-naphthyridine-3-carboxamide] the figure was 59 nM; with `CC[C@H](NC(=O)c1cn(-c2c(F)cccc2Cl)c2nc(N3C[C@@H](O)[C@H](O)C3)ccc2c1=O)C(F)(F)F` [Example 346, 1-(2-Chloro-6-fluorophenyl)-7-[(3R,4R)-3,4-dihydroxypyrrolidin-1-yl]-4-oxo-N-[(2S)-1,1-trifluorobutan-2-yl]-1,4-dihydro-1,8-naphthyridine-3-carboxamide], 50 nM.
Regarding `O=C(N[C@@H](C1CC1)C(F)(F)F)c1cn(-c2c(F)cccc2Cl)c2nc(N3C[C@@H](O)[C@H](O)C3)ccc2c1=O` [Example 347, 1-(2-Chloro-6-fluorophenyl)-N-[(1 S)-1-cyclopropyl-2,2,2-trifluoroethyl]-7-[(3R,4R)-3,4-dihydroxypyrrolidin-1-yl]-4-oxo-1,4-dihydro-1,8-naphthyridine-3-carboxamide], it took 34 nM to reach a half-maximal effect (EC50).
In turn, `CC[C@H](NC(=O)c1cn(-c2c(F)cccc2F)c2nc(N3C[C@@H](O)[C@H](O)C3)ccc2c1=O)C(F)(F)F` [Example 348, 1-(2,6-Difluorophenyl)-7-[(3R,4R)-3,4-dihydroxypyrrolidin-1-yl]-4-oxo-N-[(2S)-1,1,1-trifluorobutan-2-yl]-1,4-dihydro-1,8-naphthyridine-3-carboxamide] had a 50% effective concentration (EC50) of 61 nM.
The value for `CC[C@H](NC(=O)c1cn(-c2c(F)cccc2Cl)c2nc(N3C[C@@H](O)CC3=O)ccc2c1=O)C(F)(F)F` [Example 351, 1-(2-Chloro-6-fluorophenyl)-7-[(4S)-4-hydroxy-2-oxopyrrolidin-1-yl]-4-oxo-N-[(2S)-1,1,1-trifluorobutan-2-yl]-1,4-dihydro-1,8-naphthyridine-3-carboxamide] was 17 nM.
With `O=C(N[C@@H](C1CC1)C(F)(F)F)c1cn(-c2c(F)cccc2Cl)c2nc(N3C[C@@H](O)CC3=O)ccc2c1=O` [Example 352, 1-(2-Chloro-6-fluorophenyl)-N-[(1S)-1-cyclopropyl-2,2,2-trifluoroethyl]-7-[(4S)-4-hydroxy-2-oxopyrrolidin-1-yl]-4-oxo-1,4-dihydro-1,8-naphthyridine-3-carboxamide], it took 17 nM to reach a half-maximal effect (EC50).
The value for `C[C@@H](COC(F)(F)F)NC(=O)c1cn(-c2c(F)cc(F)cc2F)c2nc(N3C[C@@H](O)[C@H](O)C3)ccc2c1=O` [Example 353, 7-[(3R,4R)-3,4-Dihydroxypyrrolidin-1-yl]-4-oxo-N-[(2S)-1-(trifluoromethoxy)propan-2-yl]-1-(2,4,6-trifluorophenyl)-1,4-dihydro-1,8-naphthyridine-3-carboxamide] was 50 nM.
Compound `CC[C@@H](NC(=O)c1cn(-c2ccc(F)cc2F)c2nc(N3CCC4CC4(O)C3)ccc2c1=O)C(F)(F)F` (stereo partly drawn) [Example 354, 1-(2,4-Difluorophenyl)-7-[1-hydroxy-3-azabicyclo[4.1.0]hept-3-yl]-4-oxo-N-[(2R)-1,1,1-trifluorobutan-2-yl]-1,4-dihydro-1,8-naphthyridine-3-carboxamide] had an EC50 of 38 nM.
Turning to `CC[C@@H](NC(=O)c1cn(-c2ccc(F)cc2F)c2nc(N3CC(O)C4(CC4)C3)ccc2c1=O)C(F)(F)F` (stereo partly drawn) [Example 355, 1-(2,4-Difluorophenyl)-7-[7-hydroxy-5-azaspiro[2.4]hept-5-yl]-4-oxo-N-[(2R)-1,1,1-trifluorobutan-2-yl]-1,4-dihydro-1,8-naphthyridine-3-carboxamide], a half-maximal effect (EC50) was put at 85 nM.
With `CC[C@@H](NC(=O)c1cn(-c2ccc(F)cc2F)c2nc(N3CC(O)C(C)(C)C3)ccc2c1=O)C(F)(F)F` (stereo partly drawn) [Example 356, 1-(2,4-Difluorophenyl)-7-[4-hydroxy-3,3-dimethylpyrrolidin-1-yl]-4-oxo-N-[(2R)-1,1,1-trifluorobutan-2-yl]-1,4-dihydro-1,8-naphthyridine-3-carboxamide] the figure was 94 nM.
